Results from US7687079B2, “Methods of treating ileus” (priority 2002, dated 2010).

Tests used:
Assay type in all cases: in vivo, mouse
IL-6 mRNA = IL-6 mRNA in muscularis after IM (real time RT-PCR); conditions: IM + CO, 3 and 6 hr time points
Protocol: Pro- and anti-inflammatory gene expression was determined by real time RT-PCR. The small intestinal muscularis externa was collected at 4 time points (3, 6, 12, and 24 hr) postoperatively and snap frozen in liquid nitrogen. Total RNA extraction was performed using the guanidium-thiocyanate phenol-chloroform extraction method as described in Eskandari et al. (Id.) RNA pellets were resuspended in RNA-secure resuspension solution (Ambion Inc., Austin, Tex.), followed by removal of potential contaminating DNA by treatment with DNase I (DNA-Free Kit, Ambion Inc., Austin, Tex.). Equal aliquots (5 μg) of total RNA from each sample were quantified by spectrophotometry (wavelength […]). Peak mRNA expression was quantified in duplicate by SYBR Green two-step, real-time RT-PCR. β-actin was used as the endogenous reference. […] Real-time PCR data were plotted as the ΔRn fluorescence signal versus the cycle number. […] Quantification of mRNA expression was normalized to β-actin and calculated relative to control using the comparative CT method.
To exclude PCR amplification of contaminating genomic DNA, RT-negative controls (samples containing RNA which was not reverse transcribed) were included in each PCR reaction. […] PCR amplification efficiency of each target cDNA was measured by determining the colinearity of serial dilutions. […]

HO-1 mRNA = test: Example 3 HO-1 mRNA by SYBR green real time RT-PCR; conditions: IM-CO mice
Protocol: (§1) Ileus was induced in mice by gentle manipulation of the small intestine. An incision was made to expose the abdominal cavity of the mouse, and bowel manipulation was performed by gentle poking and prodding of the small intestine (see, e.g., Schwarz et al., Gastroenterology 121(6):1354-1357 (2001)). […] Mice were exposed to CO by inhalation (250 and 500 ppm) for 1 hour immediately prior to intestinal manipulation and during the entire 24-hour recovery period. Intestinal contractility was assessed in vitro by measuring circular muscle strip contractions in response to bethanechol (0.3-300 μM) and in vivo by determining intestinal transit from the distribution of orally-fed, fluorescein-labeled dextran and calculating geometric center as described in Example 1 above. HO-1 and IL-10 mRNA expression were determined by SYBR green real time RT-PCR from extracts of muscularis extemae, as described in Example 1 above. Release of nitric oxide (NO), a potent inhibitor of smooth muscle contractility, was estimated by measuring serum total nitrite, also described in Example 1 above.

IL-10 mRNA = test: Example 3 IL-10 mRNA by SYBR green real time RT-PCR; conditions: IM-CO mice
Protocol: as §1

serum total nitrite = test: Example 3 serum total nitrite; conditions: IM-CO mice
Protocol: Ileus was induced in mice by gentle manipulation of the small intestine. An incision was made to expose the abdominal cavity of the mouse, and bowel manipulation was performed by gentle poking and prodding of the small intestine (see, e.g., Schwarz et al., Gastroenterology 121(6):1354-1357 (2001)). The incision was subsequently closed, and analyses were performed 24 hours later. Mice were exposed to CO by inhalation (250 and 500 ppm) for 1 hour immediately prior to intestinal manipulation and during the entire 24-hour recovery period. Intestinal contractility was assessed in vitro by measuring circular muscle strip contractions in response to bethanechol (0.3-300 μM) and in vivo by determining intestinal transit from the distribution of orally-fed, fluorescein-labeled dextran and calculating geometric center as described in Example 1 above. HO-1 and IL-10 mRNA expression were determined by SYBR green real time RT-PCR from extracts of muscularis extemae, as described in Example 1 above. Release of nitric oxide (NO), a potent inhibitor of smooth muscle contractility, was estimated by measuring serum total nitrite, also described in Example 1 above.

## [C-]#[O+] [CO, carbon monoxide]
IL-6 mRNA
  manipulation-induced IL-6 gene expression: no effect
HO-1 mRNA
  HO-1 expression versus controls: 150 fold
HO-1 mRNA; early induction
  HO-1 increase in expression over IM alone: 300%
IL-10 mRNA
  IL-10 expression versus controls: 35 fold
Serum total nitrite
  serum nitrite: 6.0 ± 1.6 µM
